Assay results from ChEMBL document CHEMBL3102694, “Synthesis of C11-Desmethoxy Soraphen A1α: A natural product analog that inhibits acetyl-CoA carboxylase” (ACS Med Chem Lett, 2013).
Active and inactive are the calls of the source. The calls are words filed in the database; no cut-off is given here.

How the values were obtained:
[1] = species: Mus musculus; assay: Cytotoxicity against mouse SCR1163 cells at 1.25 to 10 uM after 24 to 72 hrs by MTT assay; type: functional, cell-based
[2] = species: Mus musculus; assay: Inhibition of acetyl-CoA carboxylase in mouse SCR1693 cells assessed as reduction in [14C]-acetate incorporation into fatty acid at 0.1 to 1 uM after 4 hrs; type: cell-based
[3] = species: Mus musculus; assay: Inhibition of acetyl-CoA carboxylase in mouse SCR1163 cells assessed as reduction in [14C]-acetate incorporation into fatty acid at 0.1 to 1 uM after 4 hrs; type: cell-based

| Structure (SMILES) | Activity [1] | inhibition [2] | inhibition [3] |
| --- | --- | --- | --- |
| CO[C@@H]1C/C=C/[C@H](C)[C@@H]2O[C@](O)([C@H](C)C(=O)O[C@H](c3ccccc3)CCCC1)[C@H](OC)[C@@H](O)[C@@H]2C | Active | 48% | 59% |
| CO[C@H]1CCCC[C@@H](c2ccccc2)OC(=O)[C@@H](C)[C@@]2(O)O[C@H]([C@@H](C)[C@H](O)[C@H]2OC)[C@@H](C)/C=C/[C@H]1OC |  | Active | Active |
